Source: patent US20070276020A1, “Dicationic Compounds For Activity Against Trichomonas Vaginalis” (priority 2004, published 2007)
Structures can show the parent of a compound that is named as a salt. Where two headings read alike, the source gives them in different places.

What was measured:
[1] = tested on: T. vaginalis CDC reference strain 520 (metronidazole-sensitive); assay: IC50 assay, tritiated thymidine incorporation, 48 h, metronidazole-sensitive strain 520; assay type: cell-based, Trichomonas vaginalis; settings: for IC50: Trichomonas vaginalis
Experimental: (§1) CDC reference strains 085 and 520 that are metronidazole resistant and sensitive, respectively, were maintained at 37° C. in Diamond's trypticase-yeast-maltose medium (TYM; pH 6.0). Metronidazole, tinidazole, pentamidine, and berenil were purchased from Sigma Chemical Co. (St. Louis, Mo., United States of America). Compound 1, see Das, B. P. and D. W. Boykin, J. Med. Chem., 20, 531-536 (1977); Compound 2, see Boykin, D. W., et al., Bioorganic and Med. Chem. Lett., 6:3017-3020 (1996); Compound 3 and Compound 4, see Boykin, D. W., et al., J. Med. Chem., 41, 124-129 (1998); Compound 6, see Francesconi, I., et al., J. Med. Chem., 42, 2260-2265 (1999); Compound 5, see Stephens, C., et al., J. Med. Chem., 44, 1741-1748 (2001); and Compound 9, see Mallena, S. et al., J. Am. Chem. Soc., 126, 13659-13669 (2004); were synthesized as previously reported. Purity was determined by NMR and TLC. The syntheses of 7 and 8 are outlined below. See also Crowell, A. L., et al., Antimicrob. Agents Chemother., 48, 3602-3605 (2004), which is incorporated herein by reference in its entirety.
(§2) Compounds were dissolved in dimethyl sulfoxide (DMSO, Sigma) and further diluted with Diamond's TYM media to reach assay concentrations. Two types of assays were performed on the cationic compounds being evaluated. An initial screen was performed using the standard MLC assay, see Crowell, A. L., et al., Antimicrob. Agents Chemother., 47, 1407-1409 (2003); Meingassner, J. G. and J. Thurner, Antimicrob. Agents Chemother., 15, 254-257 (1979), with a maximum concentration of 20 μM for the test compounds. After 48 h of incubation at 37° C., plates were examined using an inverted phase-contrast microscope. The lowest drug concentration at which no motile trichomonads were observed was recorded as the MLC. Each compound was tested at least twice under both aerobic and anaerobic conditions. Anaerobic conditions were generated using a GASPAK™ jar and CO2-generating GASPAK™ Plus anaerobic system envelopes (Becton Dickinson, Sparks, Md., United States of America) and monitored with GASPAK™ disposable anaerobic indicator strips (Becton Dickinson). […] To further evaluate the compounds' activity, a second type of assay was used to determine the concentration at which 50% of the parasite growth was inhibited (IC50). In these assays, 0.5 μCi of tritiated thymidine (Perkin-Elmer, Boston, Mass., United States of America) was added to each well of a standard assay at the initiation of culture. At 48 h of incubation under either aerobic or anaerobic conditions, cells were harvested onto glass fiber filters (Wallac, Turku, Finland) using a TOMTEC™ cell harvester (Hamden, Conn., United States of America). Incorporated thymidine was detected using BETAPLATE™ (Wallac) scintillation fluid and plate reader. The resulting counts per minute over the compound's concentration range were utilized to calculate IC50s using GRAPHPAD™ PRISM™ (GraphPad Software, Inc., San Diego, Calif., United States of America).

[2] = tested on: trichomoniasis infections; settings: cited from earlier work
[3] = tested on: T. vaginalis CDC reference strain 085 (metronidazole-resistant); assay: IC50 assay, tritiated thymidine incorporation, 48 h, metronidazole-resistant strain 085; assay type: cell-based, Trichomonas vaginalis
Experimental: as §1, §2

[4] = tested on: T. vaginalis; assay: In vitro assays against T. vaginalis, overall statement in words; assay type: cell-based, Trichomonas vaginalis
Experimental: as §2

[5] = tested on: different protozoal infection; settings: experimental model; cited from earlier work
[6] = metronidazole-sensitive strain 520, aerobic, 48 h, read-out: IC50 values (μM ± SEM) 520 aerobic
[7] = metronidazole-sensitive strain 520, anaerobic, 48 h, read-out: IC50 values (μM ± SEM) 520 anaerobic
[8] = Trichomonas vaginalis, metronidazole-resistant strain 085, aerobic, 48 h, read-out: IC50 values (μM ± SEM) 085 aerobic
[9] = Trichomonas vaginalis, metronidazole-resistant strain 085, anaerobic, 48 h, read-out: IC50 values (μM ± SEM) 085 anaerobic
[10] = 48 h, read-out: IC50 values (μM ± SEM) 520 aerobic
[11] = 48 h, read-out: IC50 values (μM ± SEM) 520 anaerobic
[12] = Trichomonas vaginalis, 48 h, read-out: IC50 values (μM ± SEM) 085 aerobic
[13] = Trichomonas vaginalis, 48 h, read-out: IC50 values (μM ± SEM) 085 anaerobic
[14] = metronidazole-sensitive strain 520, aerobic, 48 h
[15] = metronidazole-sensitive strain 520, anaerobic, 48 h
[16] = metronidazole-resistant strain 085, aerobic, 48 h
[17] = metronidazole-resistant strain 085, anaerobic, 48 h

IC50 [1, 10] | IC50 [1, 11] | IC50 [3, 12] | IC50 [3, 13] | IC50 values (μM ± SEM) 520 aerobic [1, 14] | IC50 values (μM ± SEM) 520 anaerobic [1, 15] | IC50 values (μM ± SEM) 085 anaerobic [3, 17] | Compound | effectiveness against T. vaginalis in vitro [4] | further results
15.9 ± 0.74 µM | 13.9 ± 3.74 µM | 22.4 ± 13.7 µM | 10.2 ± 8.47 µM |  |  |  | N=C(NC1CCCCC1)c1ccc(-c2ccc(-c3ccc(C(=N)NC4CCCCC4)cc3)o2)cc1 [Compound 4, 2,5-Bis[4-(N-cyclohexylamidino)phenyl]-furan] |  | 
18.6 ± 6.43 µM | 57.9 ± 19.6 µM | 8.12 ± 2.45 µM | 18.6 ± 19.8 µM |  |  |  | N=C(N)c1ccc(-c2ccc(-c3ccc(C(=N)N)cc3)o2)cc1 [Compound 1, 2,5-Bis(4-amidinophenyl)furan] |  | activity against metronidazole-sensitive 520 isolate [1]: good activity; effectiveness versus metronidazole and tinidazole against resistant strain 085 ([3]; aerobic conditions): clearly more effective
 |  |  |  | no effect | no effect | no effect | N=C(N)c1ccc(-c2coc(-c3ccc(C(=N)N)cc3)c2)cc1 [Compound 6, 3,5-Bis(4-amidophenyl)furan] | not effective | IC50 values (μM ± SEM) 085 aerobic [3, 16]: no effect
 |  | 39.1 ± 25.1 µM |  | no effect | no effect | no effect | CONC(=N)c1ccc(-c2ccc(-c3ccc(C(=N)NOC)cc3)o2)cc1 [Compound 2, 2,5-Bis[4-(O-methyloxyamidino)phenyl]furan] | generally ineffective | 
 |  |  |  | no effect | no effect | no effect | N=C(N)c1ccc(OCCCCCOc2ccc(C(=N)N)cc2)cc1 [Pentamidine, reference compound] | not effective | IC50 values (μM ± SEM) 085 aerobic [3, 16]: no effect

Further lines, the compound ahead of its results:

Compound | IC50 [1, 10] | IC50 [1, 11] | IC50 [3, 12] | IC50 [3, 13] | IC50 values (μM ± SEM) 520 aerobic [1, 14] | IC50 values (μM ± SEM) 520 anaerobic [1, 15] | IC50 values (μM ± SEM) 085 anaerobic [3, 17] | effectiveness against T. vaginalis in vitro [4] | further results
Cc1ncc([N+](=O)[O-])n1CCO [Metronidazole, reference compound] |  |  |  |  |  |  |  |  | IC50 [1, 6]: 18.2 ± 4.25 µM; IC50 [1, 7]: 1.89 ± 0.77 µM; infections successfully treated [2]: 90-95%; IC50 [3, 8]: 303 ± 22.2 µM; IC50 [3, 9]: 12.3 ± 23.8 µM
4,4′-Bis{2-[(4-amidino)benzimidazolyl]}biphenyl tetrahydrochloride [Compound 7] |  |  |  |  | no effect | no effect |  | effective anti-trichomonads | activity against metronidazole-sensitive 520 isolate [1]: not; activity against metronidazole-resistant 085 strain [3]: has activity; IC50 ([3]; metronidazole-resistant strain 085, aerobic, 48 h, read-out: IC50 values (μM ± SEM) 085 aerobic): 7.79 ± 4.2 µM; IC50 ([3]; metronidazole-resistant strain 085, anaerobic, 48 h, read-out: IC50 values (μM ± SEM) 085 anaerobic): 25.3 ± 43.1 µM
CC(C)NC(=N)c1ccc2nc(-c3ccc4oc(-c5nc6ccc(C(=N)NC(C)C)cc6[nH]5)cc4c3)[nH]c2c1 (as salt: hydrochloride) [Compound 8, 2,5-Bis{2-[5-(N-isopropylamidino)benzimidazoyl]}benzo[b]furan tetrahydrochloride] |  |  |  |  |  |  |  |  | melting point: 285 to 290 °C
CC(C)NC(=N)c1ccc(-c2ccc(-c3ccc(C(=N)NC(C)C)cc3)o2)cc1 [Compound 3, 2,5-Bis[4-(N-isopropylamidino)phenyl]furan] | 6.6 ± 1.76 µM | 3.91 ± 1.06 µM | 6.44 ± 3.89 µM | 9.41 ± 7.92 µM |  |  |  |  | 
CCS(=O)(=O)CCn1c([N+](=O)[O-])cnc1C [Tinidazole, reference compound] |  |  |  |  |  |  |  |  | IC50 [1, 6]: 1.48 ± 0.12 µM; IC50 [1, 7]: 0.004 µM; IC50 [3, 8]: 45.1 ± 5.38 µM; IC50 [3, 9]: 4.81 ± 1.17 µM
N=C(N)c1ccc(-c2ccc(-c3nc4ccc(C(=N)N)cc4[nH]3)s2)cc1 [Compound 9, 2-(4-Amidinophenyl)-5-[2-(5-amidinobenzimidazoyl)]thiophene] | 0.98 ± 0.19 µM | 1.24 ± 0.39 µM | 0.27 ± 0.04 µM | 0.5 ± 0.42 µM |  |  |  | most effective dication | IC50 ([1]; read-out: IC50 values): ≤ 1 µM; in vivo treatment of a different protozoal infection [5]: successfully used; toxicity to the host [5]: without overt evidence of toxicity; IC50 ([3]; Trichomonas vaginalis, read-out: IC50 values): ≤ 1 µM
CC(=O)NCC(=O)O.CC(=O)NCC(=O)O.N=C(N)c1ccc(N=NNc2ccc(C(=N)N)cc2)cc1 [Berenil, reference compound] |  |  |  |  | no effect | no effect | no effect | not effective | IC50 values (μM ± SEM) 085 aerobic [3, 16]: no effect
CC(C)NC(=N)c1ccc2nc(-c3ccc4oc(-c5nc6ccc(C(=N)NC(C)C)cc6[nH]5)cc4c3)[nH]c2c1 [Compound 8, 2,5-Bis{2-[5-(N-isopropylamidino)benzimidazoyl]}benzo[b]furan tetrahydrochloride] | 44.7 ± 9.33 µM | 143 ± 127 µM | 7.27 ± 3.76 µM | 37.6 ± 43.9 µM |  |  |  | effective anti-trichomonads | 
N=C(N)Nc1ccc(-c2ccc(-c3ccc(NC(=N)N)cc3)o2)cc1 [Compound 5, 2,5-Bis-(4-guanidinophenyl)furan] |  |  |  |  | no effect | no effect | no effect | not effective | IC50 values (μM ± SEM) 085 aerobic [3, 16]: no effect
